Results taken from patent US20250179057A1, “MEK IMMUNE ONCOLOGY INHIBITORS AND THERAPEUTIC USES THEREOF” (Immuneering Corporation, priority 2022, published 2025).
Where a name gives a salt, the structure may show the parent alone. Read-outs that look alike come from different tables or passages of the source.

Legend:
CYP1A2 = biological target: T1, CYP1A2 (Homo sapiens, UniProt P05177); test: CYP450 panel inhibition in human liver microsomes, 1A2 (phenacetin); settings: for CYP-1A2 (Phenacetin) mean percentage CYP inhibition: human liver microsomes, 10 μM, substrate phenacetin
T1 sequence (P05177 1-516): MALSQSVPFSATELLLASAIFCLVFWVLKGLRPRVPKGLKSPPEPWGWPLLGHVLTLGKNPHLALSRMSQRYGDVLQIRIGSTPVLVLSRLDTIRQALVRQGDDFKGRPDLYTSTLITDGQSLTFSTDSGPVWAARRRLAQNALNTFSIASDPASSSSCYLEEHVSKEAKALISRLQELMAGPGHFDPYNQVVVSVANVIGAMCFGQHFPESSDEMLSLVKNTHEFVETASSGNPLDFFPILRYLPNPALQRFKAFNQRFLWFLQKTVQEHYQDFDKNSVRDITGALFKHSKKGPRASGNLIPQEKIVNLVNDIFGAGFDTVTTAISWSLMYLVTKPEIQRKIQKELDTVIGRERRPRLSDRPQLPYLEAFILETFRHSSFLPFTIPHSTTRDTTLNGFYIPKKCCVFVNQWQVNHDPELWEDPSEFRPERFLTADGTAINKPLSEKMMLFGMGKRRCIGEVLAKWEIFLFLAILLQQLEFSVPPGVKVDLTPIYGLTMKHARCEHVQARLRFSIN

CYP2C8 = biological target: T2, CYP2C8 (Homo sapiens, UniProt P10632); test: CYP450 panel inhibition in human liver microsomes, 2C8 (amodiaquine); settings: 10 μM, substrate amodiaquine
T2 sequence (P10632 1-490): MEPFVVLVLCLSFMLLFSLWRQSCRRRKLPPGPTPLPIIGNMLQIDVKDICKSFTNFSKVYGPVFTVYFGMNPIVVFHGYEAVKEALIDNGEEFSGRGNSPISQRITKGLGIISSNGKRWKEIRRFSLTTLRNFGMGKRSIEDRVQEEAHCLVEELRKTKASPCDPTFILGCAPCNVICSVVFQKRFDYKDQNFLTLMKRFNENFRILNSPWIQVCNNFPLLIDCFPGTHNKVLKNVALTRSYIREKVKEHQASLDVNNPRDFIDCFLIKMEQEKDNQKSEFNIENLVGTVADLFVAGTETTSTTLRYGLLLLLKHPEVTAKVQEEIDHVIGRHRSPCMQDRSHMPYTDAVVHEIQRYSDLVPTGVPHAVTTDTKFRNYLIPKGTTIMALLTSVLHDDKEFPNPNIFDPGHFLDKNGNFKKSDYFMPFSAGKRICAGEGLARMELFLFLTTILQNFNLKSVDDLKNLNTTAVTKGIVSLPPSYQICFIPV

[1] = Mouse pharmacokinetics (oral cassette dosing), plasma; assay type: in vivo; settings: BALB/c immunocompetent mice, 5 mg/kg p.o.
Procedure: Female mice (BALC/c) received a single dose (3 mice/treatment) of vehicle (10% 1N HCl:90% [20% […]) and at 0.5, 1, 2, 4, 8, 12 and 24-hour post dose humanely euthanized.
Blood was obtained through cardiac puncture into K+EDTA tubes, mixed by inversion and centrifuged to obtain the plasma. Blood will be kept on ice or at approximately 4° C. prior. Centrifugation will take place within 30 minutes of blood collection affording plasma samples. Plasma samples will be frozen as soon as possible after centrifugation and stored at −80° C. until analysis. All samples will be analysed by means of LC-MS/MS. Method development for bioanalysis will be performed by pharmacokinetics Department of Crown Bioscience (Taicang) Inc. using LC-MS/MS analysis (using Waters HSS T3 2.1×50 mm (1.8 um) LC column, and an API-4000 Electrospray MS unit). The results of a kinetic solubility (free base) study are represented in Table 19.

[2] = Hepatocyte stability, beagle dog; assay type: in vitro ADME; settings: 0.5 million cells/ml; for CLint scaled at 2 μM: beagle, dog, hepatocytes
Procedure: (§1) In this study, human, cynomolgus monkey, beagle dog, wistar hannover rat, and balb/c mouse hepatocyle stability was determined.

[3] = Hepatocyte stability, wistar hannover rat; assay type: in vitro ADME; settings: 0.5 million cells/ml; for CLint scaled at 2 μM: Wistar Hannover, rat, hepatocytes
Procedure: as §1

[4] = Hepatocyte stability, cynomolgus monkey; assay type: in vitro ADME; settings: 0.5 million cells/ml; for CLint scaled at 2 μM: cynomolgus monkey, hepatocytes
Procedure: as §1

[5] = read-out: CLint (L/hr/kg) (converted)

Structure (SMILES)	CYP-1A2 (Phenacetin) mean percentage CYP inhibition (CYP1A2) [%]	CYP-2C8 (Amodiaquine) mean percentage CYP inhibition (CYP2C8) [%]	AUC0-∞ [1] [ng·h/mL]	AUC(0-t) [1] [ng·h/mL]	Cmax [1] [ng/mL]	T1/2 [1] [h]	Tmax [1] [h]	other results
CNS(=O)(=O)Nc1nccc(Cc2c(CN(C)C)c3ccc(OC(=O)N(C)C)cc3oc2=O)c1F [Compound 124]	9.9	59.0	–	–	–	–	–	–
CCS(=O)(=O)Nc1cccc(Cc2c(CN3CCNCC3)c3cc(Cl)c(OC(=O)N(C)C)cc3oc2=O)c1Cl [Compound 257, 6-chloro-3-(2-chloro-3-(ethylsulfonamido)benzyl)-2-oxo-4-(piperazin-1-ylmethyl)-2H-chromen-7-yl dimethylcarbamate hydrochloride]	–	–	–	–	–	–	–	AUC(0-t) ([1]; female, mouse, read-out: AUC0-t): 103 ng·h/mL; Cmax ([1]; female, mouse, read-out: Cmax): 20.3 ng/mL; Tmax ([1]; female, mouse, read-out: Tmax): 4 h; inhibition at 30 min, 10 µM (CYP1A2; human, microsomes, pH 7.4): 9.9%; half-life at 2 μM ([2]; beagle dog hepatocytes): 1.88 h; CLint scaled at 2 μM [2, 5]: 3.96 L/h/kg; CLint scaled at 2 μM ([2]; read-out: CLint (mL/min/kg)): 3.97 L/h/kg; CLint scaled at 2 μM [3, 5]: 2.13 L/h/kg; CLint scaled at 2 μM ([3]; read-out: CLint (mL/min/kg)): 2.13 L/h/kg; half-life at 2 μM ([3]; wistar hannover rat hepatocytes): 1.75 h; half-life at 2 μM ([4]; cynomolgus monkey hepatocytes): 2.98 h; CLint scaled at 2 μM [4, 5]: 1.88 L/h/kg; CLint scaled at 2 μM ([4]; read-out: CLint (mL/min/kg)): 1.88 L/h/kg
CCCS(=O)(=O)Nc1cccc(Cc2c(CN3CCNCC3)c3cc(Cl)c(OC(=O)N(C)C)cc3oc2=O)c1F [Compound 167]	10.8	61.8	–	–	–	–	–	–
CNS(=O)(=O)Nc1cccc(Cc2c(CN(C)C)c3ccc(OC(=O)N(C)C)cc3oc2=O)c1F [Compound 9]	2.8	15.5	445	441	725	1.1	0.083	–
CCS(=O)(=O)Nc1cccc(Cc2c(CN(C)C)c3ccc(OC(=O)N(C)C)cc3oc2=O)c1F [Compound 120]	−3.7	21.9	673.2	669.3	1422.7	0.3	0.083	–
CNS(=O)(=O)Nc1cccc(Cc2c(CN3CCNCC3)c3cc(F)c(OC(=O)N(C)C)cc3oc2=O)c1F [Compound 134]	−0.9	78.8	–	–	–	–	–	–
